Legend:
Assay type in all cases: binding
S100A8 = molecular target: T1, S100A8 (Homo sapiens, UniProt P05109); test: direct fluorescence polarization (FP), S100A8; conditions: S100A8, 50 nM labeled foldamer, 20 mM HEPES pH 7.5, 150 mM NaCl, 1 mM CaCl2, 0.5 mM TCEP, 0.01% Tween20, quadratic fit, mean ± SEM, three technical repeats, threshold 1 mM
T1 sequence (P05109 1-93): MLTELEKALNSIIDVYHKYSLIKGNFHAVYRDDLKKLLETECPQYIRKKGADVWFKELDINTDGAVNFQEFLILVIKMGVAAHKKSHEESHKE
Procedure: (§1) HTP (and also low-throughput) measurements generally need to be validated by an orthogonal approach to eliminate experimental artifacts. […] This way, we chose WL, IF, WW, YF, IL, VL, TW, RF, RR, TI, TM, and after resynthesizing with a fluorescent label at the C-terminus (Figs. S15–S26, Table S1), the S100ome was tested against the labeled foldamers by direct fluorescence polarization (FP) (Fig. 3A). In this assay, the association of the fluorescently labeled foldamer and the S100 protein of interest is monitored, through the change in polarization of the emitted light by the fluorophore upon the binding event. In direct FP, the presence of the fluorophore might change the binding affinity of some foldamers. […] Nevertheless, we assumed that the fluorophore would affect all foldamers that target the same binding site to the same degree, because the foldamer scaffold is rigid. Defining the threshold of detection at the dissociation constant of 1 mM, we identified 87 interactions between the selected foldamer fragments and the S100ome out of 220 possible interactions (Table 1, Fig. S4-14).
(§2) Briefly, S100 proteins were cloned into a modified pET15b vector with a TEV protease cleavable N-terminal His6-tag and expressed in Escherichia coli BL21 (DE3) cells, followed by Ni^2+-affinity chromatography. For HU assay, S100 proteins were further purified by either hydrophobic interaction chromatography or ion exchange chromatography without the cleavage of the N-terminal His6-tag applying standard conditions. For direct FP measurements, the N-terminal His6-tag was cleaved, and the S100 proteins were purified by hydrophobic interaction chromatography, ion exchange chromatography or size exclusion chromatography. The quality of the recombinant proteins was checked by SDS-PAGE analysis in all cases. The concentration of the recombinant S100 proteins was determined by UV spectrophotometry using the absorbance of Tyr and Trp residues.
(§3) In direct fluorescence polarization assays, S100 proteins were diluted in a buffer containing 50 nM labeled foldamer, 20 mM HEPES pH 7.5, 150 mM NaCl, 1 mM CaCl2, 0.5 mM TCEP and 0.01% Tween20. The dilution series (50 µl) were divided into three technical repeats and transferred (15 µl) to a 384-well microplate. In competitive fluorescence polarization assays, the buffer applied in direct measurements was supplemented with the S100 protein of interest to reach a saturation of 60–80%. This mixture was titrated with the competitor (i.e. the unlabeled peptide). Fluorescence polarization was measured in 8 different S100 concentrations (one of which contained no S100 protein) on a Synergy H4 plate reader using 485 ± 20 nm and 528 ± 20 nm band-pass filters for excitation and emission, respectively. The Kd values were obtained by fitting the data from the FP measurements with the python-based ProFit software using quadratic and competitive binding equation for direct and competitive FP, respectively. The detection threshold was based on two parameters. First, we rejected all fitted dissociation constants above 1 mM.

S100A1 = molecular target: T2, S100A1 (Homo sapiens, UniProt P23297); test: direct fluorescence polarization (FP), S100A1; conditions: S100A1, 50 nM labeled foldamer, 20 mM HEPES pH 7.5, 150 mM NaCl, 1 mM CaCl2, 0.5 mM TCEP, 0.01% Tween20, quadratic fit, mean ± SEM, three technical repeats, threshold 1 mM
T2 sequence (P23297 1-94): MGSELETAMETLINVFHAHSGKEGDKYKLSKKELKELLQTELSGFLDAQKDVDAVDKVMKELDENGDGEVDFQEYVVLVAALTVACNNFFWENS
Source text: (§4) HTP (and also low-throughput) measurements generally need to be validated by an orthogonal approach to eliminate experimental artifacts. […] In this assay, the association of the fluorescently labeled foldamer and the S100 protein of interest is monitored, through the change in polarization of the emitted light by the fluorophore upon the binding event. In direct FP, the presence of the fluorophore might change the binding affinity of some foldamers. […] Nevertheless, we assumed that the fluorophore would affect all foldamers that target the same binding site to the same degree, because the foldamer scaffold is rigid.
as §2, §3

S100A9 = molecular target: T3, S100A9 (Homo sapiens, UniProt P06702); test: direct fluorescence polarization (FP), S100A9; conditions: S100A9, 50 nM labeled foldamer, 20 mM HEPES pH 7.5, 150 mM NaCl, 1 mM CaCl2, 0.5 mM TCEP, 0.01% Tween20, quadratic fit, mean ± SEM, three technical repeats, threshold 1 mM
T3 sequence (P06702 1-114): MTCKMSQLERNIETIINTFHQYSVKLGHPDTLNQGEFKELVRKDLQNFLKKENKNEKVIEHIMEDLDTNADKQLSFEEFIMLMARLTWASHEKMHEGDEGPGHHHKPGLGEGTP
Procedure: as §1, §2, §3

S100A11 = molecular target: T4, S100A11 (Homo sapiens, UniProt P31949); test: direct fluorescence polarization (FP), S100A11; conditions: S100A11, 50 nM labeled foldamer, 20 mM HEPES pH 7.5, 150 mM NaCl, 1 mM CaCl2, 0.5 mM TCEP, 0.01% Tween20, quadratic fit, mean ± SEM, three technical repeats, threshold 1 mM
T4 sequence (P31949 1-105): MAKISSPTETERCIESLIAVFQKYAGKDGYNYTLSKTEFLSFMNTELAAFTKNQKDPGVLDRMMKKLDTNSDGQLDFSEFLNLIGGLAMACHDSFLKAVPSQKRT
Procedure: as §1, §2, §3

S100A4 = S100A4 (Homo sapiens, UniProt P26447); test: direct fluorescence polarization (FP), S100A4; conditions: S100A4, 50 nM labeled foldamer, 20 mM HEPES pH 7.5, 150 mM NaCl, 1 mM CaCl2, 0.5 mM TCEP, 0.01% Tween20, quadratic fit, mean ± SEM, three technical repeats, threshold 1 mM
Source text: as §4, §2, §3

S100A14 = molecular target: T5, S100A14 (Homo sapiens, UniProt Q9HCY8); test: direct fluorescence polarization (FP), S100A14; conditions: S100A14, 50 nM labeled foldamer, 20 mM HEPES pH 7.5, 150 mM NaCl, 1 mM CaCl2, 0.5 mM TCEP, 0.01% Tween20, quadratic fit, mean ± SEM, three technical repeats, threshold 1 mM
T5 sequence (Q9HCY8 1-104): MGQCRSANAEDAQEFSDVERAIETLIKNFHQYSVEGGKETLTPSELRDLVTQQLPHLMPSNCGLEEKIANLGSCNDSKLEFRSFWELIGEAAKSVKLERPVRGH
Procedure: as §1, §2, §3

S100A4, sequence (P26447 whole entry): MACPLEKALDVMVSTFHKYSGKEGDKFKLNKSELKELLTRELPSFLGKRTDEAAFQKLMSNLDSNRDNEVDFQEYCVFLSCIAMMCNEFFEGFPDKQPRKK

Compound	Kd (S100A8) [µM]	Kd (S100A1) [µM]	Kd (S100A9) [mM]	Kd (S100A11) [mM]	Kd (S100A4) [µM]	Kd (S100A14) [mM]
CC(C)C[C@@H](CC(=O)N[C@H]1CCCC[C@@H]1C(=O)NCC(=O)N[C@@H](CCCCNC(=O)c1ccc2c(c1)C1(OC2=O)c2ccc(O)cc2Oc2cc(O)ccc21)C(N)=O)NC(=O)[C@H]1CCCC[C@@H]1NC(=O)[C@H]1CCCC[C@@H]1NC(=O)C[C@@H](NC(=O)[C@H]1CCCC[C@@H]1N)C(C)C [fVL]	> 1000	97 ± 12	> 1	> 1	210 ± 8.7	> 1
C[C@@H](O)[C@@H](CC(=O)N[C@H]1CCCC[C@@H]1C(=O)N[C@H]1CCCC[C@@H]1C(=O)N[C@H](CC(=O)N[C@H]1CCCC[C@@H]1C(=O)NCC(=O)N[C@@H](CCCCNC(=O)c1ccc2c(c1)C1(OC2=O)c2ccc(O)cc2Oc2cc(O)ccc21)C(N)=O)Cc1c[nH]c2ccccc12)NC(=O)[C@H]1CCCC[C@@H]1N [fTW]	770 ± 180	330 ± 20	> 1	0.57 ± 0.068	180 ± 46	> 1
CC[C@H](C)[C@@H](CC(=O)N[C@H]1CCCC[C@@H]1C(=O)N[C@H]1CCCC[C@@H]1C(=O)N[C@H](CC(=O)N[C@H]1CCCC[C@@H]1C(=O)NCC(=O)N[C@@H](CCCCNC(=O)c1ccc2c(c1)C1(OC2=O)c2ccc(O)cc2Oc2cc(O)ccc21)C(N)=O)Cc1ccccc1)NC(=O)[C@H]1CCCC[C@@H]1N [fIF]	750 ± 46	210 ± 13	> 1	0.28 ± 0.015	93 ± 2.4	> 1
CC(C)C[C@@H](CC(=O)N[C@H]1CCCC[C@@H]1C(=O)NCC(=O)N[C@@H](CCCCNC(=O)c1ccc2c(c1)C1(OC2=O)c2ccc(O)cc2Oc2cc(O)ccc21)C(N)=O)NC(=O)[C@H]1CCCC[C@@H]1NC(=O)[C@H]1CCCC[C@@H]1NC(=O)C[C@H](Cc1c[nH]c2ccccc12)NC(=O)[C@H]1CCCC[C@@H]1N [fWL]	74 ± 3.5	53 ± 5.2	> 1	> 1	46 ± 1.6	> 1
CC[C@H](C)[C@@H](CC(=O)N[C@H]1CCCC[C@@H]1C(=O)N[C@H]1CCCC[C@@H]1C(=O)N[C@H](CC(=O)N[C@H]1CCCC[C@@H]1C(=O)NCC(=O)N[C@@H](CCCCNC(=O)c1ccc2c(c1)C1(OC2=O)c2ccc(O)cc2Oc2cc(O)ccc21)C(N)=O)CC(C)C)NC(=O)[C@H]1CCCC[C@@H]1N [fIL]	> 1000	–	> 1	> 1	150 ± 4.8	> 1
N=C(N)NCCC[C@@H](CC(=O)N[C@H]1CCCC[C@@H]1C(=O)N[C@H]1CCCC[C@@H]1C(=O)N[C@H](CC(=O)N[C@H]1CCCC[C@@H]1C(=O)NCC(=O)N[C@@H](CCCCNC(=O)c1ccc2c(c1)C1(OC2=O)c2ccc(O)cc2Oc2cc(O)ccc21)C(N)=O)Cc1ccccc1)NC(=O)[C@H]1CCCC[C@@H]1N [fRF]	> 1000	413 ± 81	> 1	0.998 ± 0.217	460 ± 23	> 1
CSCC[C@@H](CC(=O)N[C@H]1CCCC[C@@H]1C(=O)NCC(=O)N[C@@H](CCCCNC(=O)c1ccc2c(c1)C1(OC2=O)c2ccc(O)cc2Oc2cc(O)ccc21)C(N)=O)NC(=O)[C@H]1CCCC[C@@H]1NC(=O)[C@H]1CCCC[C@@H]1NC(=O)C[C@@H](NC(=O)[C@H]1CCCC[C@@H]1N)[C@@H](C)O [fTM]	> 1000	> 1000	> 1	> 1	> 1000	> 1
CC[C@H](C)[C@@H](CC(=O)N[C@H]1CCCC[C@@H]1C(=O)NCC(=O)N[C@@H](CCCCNC(=O)c1ccc2c(c1)C1(OC2=O)c2ccc(O)cc2Oc2cc(O)ccc21)C(N)=O)NC(=O)[C@H]1CCCC[C@@H]1NC(=O)[C@H]1CCCC[C@@H]1NC(=O)C[C@@H](NC(=O)[C@H]1CCCC[C@@H]1N)[C@@H](C)O [fTI]	> 1000	> 1000	> 1	> 1	> 1000	> 1
N=C(N)NCCC[C@@H](CC(=O)N[C@H]1CCCC[C@@H]1C(=O)NCC(=O)N[C@@H](CCCCNC(=O)c1ccc2c(c1)C1(OC2=O)c2ccc(O)cc2Oc2cc(O)ccc21)C(N)=O)NC(=O)[C@H]1CCCC[C@@H]1NC(=O)[C@H]1CCCC[C@@H]1NC(=O)C[C@H](CCCNC(=N)N)NC(=O)[C@H]1CCCC[C@@H]1N [fRR]	> 1000	280 ± 38	> 1	> 1	> 1000	> 1
NC(=O)[C@H](CCCCNC(=O)c1ccc2c(c1)C1(OC2=O)c2ccc(O)cc2Oc2cc(O)ccc21)NC(=O)CNC(=O)[C@H]1CCCC[C@@H]1NC(=O)C[C@H](Cc1c[nH]c2ccccc12)NC(=O)[C@H]1CCCC[C@@H]1NC(=O)[C@H]1CCCC[C@@H]1NC(=O)C[C@H](Cc1c[nH]c2ccccc12)NC(=O)[C@H]1CCCC[C@@H]1N [fWW]	> 1000	110 ± 19	> 1	> 1	–	> 1
NC(=O)[C@H](CCCCNC(=O)c1ccc2c(c1)C1(OC2=O)c2ccc(O)cc2Oc2cc(O)ccc21)NC(=O)CNC(=O)[C@H]1CCCC[C@@H]1NC(=O)C[C@H](Cc1ccccc1)NC(=O)[C@H]1CCCC[C@@H]1NC(=O)[C@H]1CCCC[C@@H]1NC(=O)C[C@H](Cc1ccc(O)cc1)NC(=O)[C@H]1CCCC[C@@H]1N [fYF]	180 ± 42	110 ± 9.8	> 1	> 1	113 ± 5.2	> 1

Reference: article PMC8991199, “Promiscuity mapping of the S100 protein family using a high-throughput holdup assay” (Scientific Reports, 2022)
